Results as given in US20230331762A1, “CRYSTALLINE FORM OF ASPACYTARABINE” (Biosight Ltd., priority 2020, published 2023).
Entries after “also recorded” stand apart in the source; their conditions may differ. Where two headings read alike, the source gives them in different places.

Legend:
Format in all cases: physicochemical
[1] = Decomposition in solvents
[2] = Thermodynamic stability of the solid form; conditions: crystalline vs amorphous
Solubility in water = test: Solubility in water
[3] = Solubility in organic solvents

Cl.N[C@@H](CC(=O)Nc1ccn([C@@H]2O[C@H](CO)[C@@H](O)[C@@H]2O)c(=O)n1)C(=O)O [aspacytarabine-HCl]
decomposition in DMF ([1]; strong polar aprotic solvent DMF): decompose
decomposition in DMSO ([1]; strong polar aprotic solvent DMSO): decompose
decomposition in water ([1]; water, rate is determined by heat and time): decompose

N[C@@H](CC(=O)Nc1ccn([C@@H]2O[C@H](CO)[C@@H](O)[C@@H]2O)c(=O)n1)C(=O)O [Form B, (S)-2-amino-4-((1-((2R,3S,4S,5R)-3,4-dihydroxy-5-(hydroxymethyl)tetrahydrofuran-2-yl)-2-oxo-1,2-dihydropyrimidin-4-yl)amino)-4-oxobutanoic acid]
thermodynamic stability [2]: thermodynamically more stable than the amorphous form
solubility in water (Solubility in water): up to 2%
solubility in water (Solubility in water; result in words): insoluble; also recorded: not soluble
solubility in DCM ([3]; DCM): not soluble
solubility in EtOH ([3]; EtOH): not soluble
solubility in MeOH ([3]; MeOH): not soluble
solubility in NMP ([3]; NMP): soluble
solubility in THF ([3]; THF): not soluble
solubility in an amide solvent ([3]; amide solvent): soluble
solubility in ethyl acetate ([3]; ethyl acetate): not soluble
solubility in most organic solvents ([3]; most organic solvents): non soluble; also recorded: insoluble; also recorded: not soluble
solubility in toluene ([3]; toluene): not soluble
